pIC50: −log10 of the molar value.

The assay has as its target Bile salt export pump (Homo sapiens, UniProt O95342). As to the kind of experiment: Inhibition of human BSEP expressed in fall armyworm sf9 cell plasma membrane vesicles assessed as reduction in vesicle-associated [3H]-taurocholate transport preincubated for 10 mins prior to ATP addition measured after 15 mins in presence of [3H]-taurocholate by topcount based membrane vesicle transport assay. Format: ADME.
As for `CCCc1nc2c(C)cc(-c3nc4ccccc4n3C)cc2n1Cc1ccc(-c2ccccc2C(=O)O)cc1`, the pIC50 is 4.79.
As to `CC(C)CN(C[C@@H](O)[C@H](Cc1ccccc1)NC(=O)O[C@H]1CCOC1)S(=O)(=O)c1ccc(N)cc1`, the pIC50 is 4.35 to 4.60.
Next, `CNS(=O)(=O)Cc1ccc2[nH]cc(CCN(C)C)c2c1`: < 3.87; `CC1=C(CC(=O)O)c2cc(F)ccc2/C1=C\c1ccc([S+](C)[O-])cc1` (stereo not drawn): < 3.87.
Turning to `O=C(O)c1ccccc1-c1c2ccc(=O)cc-2oc2cc(O)ccc12`, the pIC50 is < 3.87.
Consider `COc1ccccc1N1CCN(CCCNc2cc(=O)n(C)c(=O)n2C)CC1`, for which the pIC50 is < 3.87.
On to `CC(=O)[C@H]1[C@H](C#N)C[C@H]2[C@@H]3CC=C4CC(O)CC[C@]4(C)[C@H]3CC[C@@]21C` (stereo partly drawn), for which the pIC50 was < 3.87.
Next, `Cc1c(O)cccc1C(=O)N[C@@H](CSc1ccccc1)[C@H](O)CN1C[C@H]2CCCC[C@H]2C[C@H]1C(=O)NC(C)(C)C`: 4.93; `Nc1nc(N)c2nc(-c3ccccc3)c(N)nc2n1`: < 3.87; `S=C=Nc1cccc2ccccc12` [1-NAPHTHYLISOTHIOCYANATE]: 4.12 to 4.22.
With `CCN(CC)CCNC(=O)c1ccc(NC(C)=O)cc1` [ACECAINIDE] the figure was < 3.87; with `CC(=O)Nc1ccc(O)cc1` [ACETAMINOPHEN], < 3.87; with `Nc1nc2c(ncn2COCCO)c(=O)[nH]1` [ACYCLOVIR], < 3.87.
Turning to `C=CCc1ccccc1OCC(O)CNC(C)C` (stereo not drawn) [ALPRENOLOL], the negative logarithm of the IC50 (pIC50) is < 3.87.
With `NCC[C@H](O)C(=O)N[C@@H]1C[C@H](N)[C@@H](O[C@H]2O[C@H](CN)[C@@H](O)[C@H](O)[C@H]2O)[C@H](O)[C@H]1O[C@H]1O[C@H](CO)[C@@H](O)[C@H](N)[C@H]1O` [AMIKACIN] the figure was < 3.87; with `CN(C)CCC=C1c2ccccc2CCc2ccccc21` [AMITRIPTYLINE], < 3.87; with `CCCCCC[C@H]1C(=O)O[C@H](C)[C@H](NC(=O)c2cccc(NC=O)c2O)C(=O)O[C@@H](C)[C@@H]1OC(=O)CC(C)C` [ANTIMYCIN A], 4.22 to 4.35.
Turning to `Cc1cc(=O)n(-c2ccccc2)n1C` [ANTIPYRINE], the pIC50 was < 3.87.
Next, `CN1CCc2cccc3c2[C@H]1Cc1ccc(O)c(O)c1-3` [APOMORPHINE]: < 3.87.
Next, `CC(=O)Oc1ccccc1C(=O)O` [ASPIRIN]: < 3.87; `CCc1oc2ccccc2c1C(=O)c1cc(Br)c(O)c(Br)c1` [BENZBROMARONE]: 4.76; `C[C@H]1C[C@H]2[C@@H]3CCC4=CC(=O)C=C[C@]4(C)[C@@]3(F)[C@@H](O)C[C@]2(C)[C@@]1(O)C(=O)CO` [BETAMETHASONE]: < 3.87.
Consider `O=C(O)CCNC(=O)c1ccccc1` [BETAMIPRON], for which the pIC50 was < 3.87.
Next, `COc1ccccc1Oc1c(NS(=O)(=O)c2ccc(C(C)(C)C)cc2)nc(-c2ncccn2)nc1OCCO` [BOSENTAN]: 4.66; `CCCCNc1cc(C(=O)O)cc(S(N)(=O)=O)c1Oc1ccccc1` [BUMETANIDE]: < 3.87.
Regarding `CS(=O)(=O)OCCCCOS(C)(=O)=O` [BUSULFAN], the pIC50 was < 3.87.
`Oc1ccc2c(c1)[C@@]13CCCC[C@@]1(O)[C@@H](C2)N(CC1CCC1)CC3` [BUTORPHANOL]: the pIC50 was < 3.87.
On to `CC[C@@]1(O)C(=O)OCc2c1cc1n(c2=O)Cc2cc3ccccc3nc2-1` [CAMPTOTHECIN], for which the pIC50 was < 3.87.
As to `ClC(Cl)(Cl)Cl` [CARBON TETRACHLORIDE], the pIC50 is < 3.87.
Next, `C=CC1=C(C(=O)O)N2C(=O)[C@@H](NC(=O)/C(=N\OCC(=O)O)c3csc(N)n3)[C@H]2SC1` [CEFIXIME]: < 3.87; `O=C(O)CCCc1ccc(N(CCCl)CCCl)cc1` [CHLORAMBUCIL]: < 3.87.
With `CNC1=Nc2ccc(Cl)cc2C(c2ccccc2)=[N+]([O-])C1` [CHLORDIAZEPOXIDE] the figure was 4.35 to 4.60.
With `CN(C)CCC(c1ccc(Cl)cc1)c1ccccn1` (stereo not drawn) [CHLORPHENIRAMINE] the figure was < 3.87.

(Values after ChEMBL document CHEMBL4011581, “Interference with bile salt export pump function is a susceptibility factor for human liver injury in drug development” (Toxicol Sci, 2010).)
